# Measurements taken from US20050220837A1, “Antimicrobial hyaluronic acid coatings for orthopedic implants” (priority 2003, published 2005).
# Tested on: hTERT cells
# Test: cytotoxicity of chlorhexidine on viability/adhesion of hTERT cells (Calcein AM / Ethidium homodimer)
# Assay type: cell-based, human
# Details: 24 h
# Procedure: A separate experiment was carried out to measure the cytotoxicity of different chlorhexidine concentrations on the viability/adhesion of hTERT cells. hTERT cells were cultured as described above onto Thermanox discs in four well plates, but the DMEM with 10% FCS was inoculated with 0.1%, 1% or 10% chlorhexidine. Two control discs were also included containing just DMEM with 10% FCS, one disc was in the same plate as the chlorhexidine samples and the other in a separate four well plate. Plates were incubated at 37° C. for 24 h, before the media was removed and 1 ml DMEM (no FCS) containing 1 μl/ml Calcein AM (reacts with live cells) and 1 μl/ml Ethidium homodimer (reacts with dead cells) was added. The plates were incubated at 37° C. in the dark for a further 30 minutes, then the Thermanox discs were imaged using a Zeiss Epifluorescence microscope. Live well spread cells were seen on the sample not exposed to chlorhexidine, while dead cells were observed on the surface cultured in the same plate as samples exposed to chlorhexidine.
structure (smiles),measurement,setting,value
[H]/N=C(\N/C(=N/[H])NCCCCCCNC(=N)NC(=N)Nc1ccc(Cl)cc1)Nc1ccc(Cl)cc1 [chlorhexidine],hTERT cells on Thermanox disc after exposure,0.1% chlorhexidine in DMEM with 10% FCS,No cells were seen
same,hTERT cells on Thermanox disc after exposure,1% chlorhexidine in DMEM with 10% FCS,No cells were seen
